In patent US20200338084A1, “INHIBITORS OF LOW MOLECULAR WEIGHT PROTEIN TYROSINE PHOSPHATASE (LMPTP) AND USES THEREOF” (Sanford Burnham Prebys Medical Discovery Institute, priority 2018, published 2020):

These molecules were tested against T1, human LMPTP-A (Homo sapiens, UniProt P24666) (assay: Enzyme Assay of Inhibition of LMPTP-A). Details: phosphatase assay, OMFP or pNPP substrate, 50 mM Bis-Tris pH 6.0, 37° C.
T1 sequence (P24666 1-158): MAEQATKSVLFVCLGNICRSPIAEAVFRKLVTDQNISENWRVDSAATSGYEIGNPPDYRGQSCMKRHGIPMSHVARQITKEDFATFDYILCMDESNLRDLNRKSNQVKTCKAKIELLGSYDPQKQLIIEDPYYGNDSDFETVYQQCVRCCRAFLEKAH
Assay type: biochemical
Outline: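 Recombinant human LMPTP-A in 50 mM Bis-Tris pH 6.0, 1 mM DTT, 0.01% Triton X-100 at 37° C. Substrate OMFP read continuously by fluorescence (485/525 nm), or pNPP stopped with NaOH and read at 405 nm. IC50 taken from inhibitor concentration versus % activity plots.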

| Compound | IC50 [nM] |
| --- | --- |
| Nc1ncn(Cc2c(F)cccc2Cl)c2ncnc1-2 [3-(2-Chloro-6-fluoro-benzyl)-3H-purin-6-ylamine] | ≤ 1000 |
| N#Cc1cccc(Cl)c1Cn1cnc(N)c2ncnc1-2 [2-((6-amino-3H-purin-3-yl)methyl)-3-chlorobenzonitrile] | ≤ 1000 |
| Nc1ncn(Cc2c(Cl)cccc2Cl)c2nc(-c3cncs3)nc1-2 [3-[(2,6-Dichlorophenyl)methyl]-8-(1,3-thiazol-5-yl)-3-hydropurine-6-ylamine] | ≤ 1000 |
| Nc1ncn(Cc2c(Cl)cccc2Cl)c2nc(-c3ccc[nH]3)nc1-2 [3-[(2,6-Dichlorophenyl)methyl]-8-pyrrol-2-yl-3-hydropurine-6-ylamine] | ≤ 1000 |
| Nc1ncn(Cc2ccc(Cl)cc2)c2ncnc1-2 [3-(4-Chloro-benzyl)-3H-purin-6-ylamine] | ≥ 20000 |
| Clc1cccc(Nc2ncn(Cc3c(Cl)cccc3Cl)c3ncnc2-3)c1 [{3-[(2,6-Dichlorophenyl)methyl](3-hydropurin-6-yl)}(3-chlorophenyl)amine] | 1000 to 20000 |
| Cc1cccc(Cl)c1Cn1cnc(N)c2ncnc1-2 [3-(2-chloro-6-methylbenzyl)-3H-purin-6-amine] | ≤ 1000 |
| Nc1cccc(Cl)c1Cn1cnc(N)c2ncnc1-2 [3-(2-Amino-6-chlorobenzyl)-3H-purin-6-amine] | 1000 to 20000 |
| Fc1ccccc1Nc1ncn(Cc2c(Cl)cccc2Cl)c2ncnc1-2 [{3-[(2,6-Dichlorophenyl)methyl](3-hydropurin-6-yl)}(2-fluorophenyl)amine] | 1000 to 20000 |
| Fc1cccc(CNc2ncn(Cc3c(Cl)cccc3Cl)c3ncnc2-3)c1 [[3-(2,6-Dichloro-benzyl)-3H-purin-6-yl]-(3-fluoro-benzyl)-amine] | 1000 to 20000 |
| N#Cc1ccccc1Cn1cnc(NCc2ccco2)c2ncnc1-2 [2-((6-((Furan-2-ylmethyl)amino)-3H-purin-3-yl)methyl)benzonitrile] | ≥ 20000 |
| Cc1ccccc1Nc1ncn(Cc2c(Cl)cccc2Cl)c2ncnc1-2 [{3-[(2,6-Dichlorophenyl)methyl](3-hydropurin-6-yl)}(2-methylphenyl)amine] | 1000 to 20000 |
| CCCc1ccc(Nc2ncn(Cc3c(Cl)cccc3Cl)c3ncnc2-3)cc1 [{3-[(2,6-Dichlorophenyl)methyl](3-hydropurin-6-yl)}(4-propylphenyl)amine] | 1000 to 20000 |
| Cc1ccccc1Cn1cnc(NCc2ccco2)c2ncnc1-2 [Furan-2-ylmethyl-[3-(2-methyl-benzyl)-3H-purin-6-yl]-amine] | ≥ 20000 |
| N#Cc1ccc(Nc2ncn(Cc3c(Cl)cccc3Cl)c3ncnc2-3)cc1 [4-({3-[(2,6-Dichlorophenyl)methyl]-3-hydropurin-6-yl}amino)benzenecarbonitrile] | 1000 to 20000 |
| COc1cccc(Nc2ncn(Cc3c(Cl)cccc3Cl)c3ncnc2-3)c1 [{3-[(2,6-Dichlorophenyl)methyl](3-hydropurin-6-yl)}(3-methoxyphenyl)amine] | 1000 to 20000 |
| Clc1cccc(Cl)c1Cn1cnc(Nc2ccc(N3CCOCC3)cc2)c2ncnc1-2 [{3-[(2,6-Dichlorophenyl)methyl](3-hydropurin-6-yl)}(4-morpholin-4-ylphenyl)amine] | 1000 to 20000 |
| Nc1ncn(Cc2c(Cl)cccc2Cl)c2nc(C3=CCNCC3)nc1-2 [3-(2,6-Dichloro-benzyl)-8-(1,2,3,6-tetrahydro-pyridin-4-yl)-3H-purin-6-ylamine] | ≤ 1000 |
| Nc1ncn(Cc2c(Cl)cccc2Cl)c2nc(-c3cccc(Cl)c3)nc1-2 [3-[(2,6-Dichlorophenyl)methyl]-8-(3-chlorophenyl)-3-hydropurine-6-ylamine] | ≤ 1000 |
| COc1ccc(Cn2cnc(N)c3ncnc2-3)cc1 [3-(4-Methoxy-benzyl)-3H-purin-6-ylamine] | 1000 to 20000 |
| Nc1ncn(Cc2nnn[nH]2)c2ncnc1-2 [3-((1H-tetrazol-5-yl)methyl)-3H-purin-6-amine] | ≥ 20000 |
| Nc1ncn(Cc2c(F)ccc(F)c2F)c2ncnc1-2 [3-(2,3,6-Trifluoro-benzyl)-3H-purin-6-ylamine] | 1000 to 20000 |
| Clc1cccc(Cl)c1Cn1cnc(N2CCCCC2)c2ncnc1-2 [3-(2,6-Dichloro-benzyl)-6-piperidin-1-yl-3H-purine] | ≥ 20000 |
| Clc1cccc(Cn2cnc(NCc3ccco3)c3ncnc2-3)c1Cl [3-(2,3-dichlorobenzyl)-N-(furan-2-ylmethyl)-3H-purin-6-amine] | 1000 to 20000 |
| Nc1ncn(Cc2c(Cl)cccc2Cl)c2nc(CCc3ccccc3)nc1-2 [3-[(2,6-Dichlorophenyl)methyl]-8-(2-phenylethyl)-3-hydropurine-6-ylamine] | ≤ 1000 |
| Clc1ccc(Cl)c(Cn2cnc(NCc3ccco3)c3ncnc2-3)c1 [[3-(2,5-Dichloro-benzyl)-3H-purin-6-yl]-furan-2-ylmethyl-amine] | 1000 to 20000 |
| Nc1ncn(Cc2cccc(O)c2)c2ncnc1-2 [3-(6-Amino-purin-3-ylmethyl)-phenol] | 1000 to 20000 |

| Compound | IC50 [nM] |
| --- | --- |
| Nc1ncn(Cc2c(Cl)cccc2Cl)c2nc(/C=C/c3ccccc3)nc1-2 [8-((1E)-2-Phenylvinyl)-3-[(2,6-dichlorophenyl)methyl]-3-hydropurine-6-ylamine] | ≤ 1000 |
| Fc1ccc(F)c(Cn2cnc(NCc3ccco3)c3ncnc2-3)c1F [Furan-2-ylmethyl-[3-(2,3,6-trifluoro-benzyl)-3H-purin-6-yl]-amine] | ≥ 20000 |
| COc1cccc(Cl)c1Cn1cnc(N)c2ncnc1-2 [3-(2-chloro-6-methoxybenzyl)-3H-purin-6-amine] | 1000 to 20000 |
| Nc1ncn(Cc2c(Cl)cncc2Cl)c2nc(-c3ccccc3)nc1-2 [3-[(3,5-Dichloro(4-pyridyl))methyl]-8-phenyl-3-hydropurine-6-ylamine] | ≤ 1000 |
| Fc1ccc(Nc2ncn(Cc3c(Cl)cccc3Cl)c3ncnc2-3)cc1 [{3-[(2,6-Dichlorophenyl)methyl](3-hydropurin-6-yl)}(4-fluorophenyl)amine] | 1000 to 20000 |
| Nc1ncn(Cc2ccccc2Br)c2ncnc1-2 [3-(2-Bromo-benzyl)-3H-purin-6-ylamine] | 1000 to 20000 |
| CCCCCNc1ncn(Cc2c(Cl)cccc2Cl)c2ncnc1-2 [[3-(2,6-Dichloro-benzyl)-3H-purin-6-yl]-pentyl-amine] | 1000 to 20000 |
| Cc1noc(C)c1Cn1cnc(N)c2ncnc1-2 [3-((3,5-dimethylisoxazol-4-yl)methyl)-3H-purin-6-amine] | 1000 to 20000 |
| Nc1ncn(Cc2c(F)cccc2I)c2ncnc1-2 [3-(2-Fluoro-6-iodo-benzyl)-3H-purin-6-ylamine] | ≤ 1000 |
| Nc1ncn(Cc2c(Br)cncc2Br)c2ncnc1-2 [3-[(3,5-dibromo-4-pyridyl)methyl]-3-hydropurine-6-ylamine] | ≤ 1000 |
| Nc1ncn(Cc2c(Cl)cccc2Cl)c2nc(CCc3ccc(F)cc3)nc1-2 [3-[(2,6-dichlorophenyl)methyl]-8-[2-(4-fluorophenyl)ethyl]-3-hydropurine-6-ylamine] | ≤ 1000 |
| Nc1ncn(Cc2c(Cl)cccc2Cl)c2nc(-c3cc(F)c(F)cc3F)nc1-2 [3-[(2,6-dichlorophenyl)methyl]-8-(2,4,5-trifluorophenyl)-3-hydropurine-6-ylamine] | ≤ 1000 |
| Nc1ncn(Cc2c(Cl)cccc2Cl)c2nc(COc3ccc(Br)cc3)nc1-2 [3-[(2,6-dichlorophenyl)methyl]-8-[(4-bromophenoxy)methyl]-3-hydropurine-6-ylamine] | ≤ 1000 |
| O=C(O)c1cccc(Nc2ncn(Cc3c(Cl)cccc3Cl)c3ncnc2-3)c1 [3-({3-[(2,6-Dichlorophenyl)methyl]-3-hydropurin-6-yl}amino)benzoic acid] | 1000 to 20000 |
| Nc1ncn(Cc2c(Cl)ccnc2Cl)c2ncnc1-2 [3-[(2,4-dichloro-3-pyridyl)methyl]-3-hydropurine-6-ylamine] | ≤ 1000 |
| Oc1cccc(Nc2ncn(Cc3c(Cl)cccc3Cl)c3ncnc2-3)c1 [3-({3-[(2,6-Dichlorophenyl)methyl]-3-hydropurin-6-yl}amino)phenol] | 1000 to 20000 |
| Clc1cccc(Cl)c1Cn1cnc(NCc2ccccn2)c2ncnc1-2 [[3-(2,6-Dichloro-benzyl)-3H-purin-6-yl]-pyridin-2-ylmethyl-amine] | 1000 to 20000 |
| CC(=O)c1ccc(Nc2ncn(Cc3c(Cl)cccc3Cl)c3ncnc2-3)cc1 [1-Acetyl-4-({3-[(2,6-dichlorophenyl)methyl](3-hydropurin-6-yl)}amino)benzene] | 1000 to 20000 |
| Cc1ccccc1Cn1cnc(N)c2ncnc1-2 [3-(2-Methyl-benzyl)-3H-purin-6-ylamine] | 1000 to 20000 |
| Nc1ncn(Cc2ccncc2)c2ncnc1-2 [3-Pyridin-4-ylmethyl-3H-purin-6-ylamine] | 1000 to 20000 |
| CCCCCCc1nc2c(N)ncn(Cc3c(Cl)cccc3Cl)c-2n1 [3-[(2,6-Dichlorophenyl)methyl]-8-hexyl-3-hydropurine-6-ylamine] | ≤ 1000 |
| Cc1cccc(C)c1Cn1cnc(N)c2ncnc1-2 [3-(2,6-dimethylbenzyl)-3H-purin-6-amine] | 1000 to 20000 |
| Clc1ccccc1Nc1ncn(Cc2c(Cl)cccc2Cl)c2ncnc1-2 [{3-[(2,6-Dichlorophenyl)methyl](3-hydropurine-6-yl)}(2-chlorophenyl)amine] | ≤ 1000 |
| Cc1ccccc1-c1nc2c(N)ncn(Cc3c(Cl)cccc3Cl)c-2n1 [3-[(2,6-Dichlorophenyl)methyl]-8-(2-methylphenyl)-3-hydropurine-6-ylamine] | ≤ 1000 |
| Nc1ncn(Cc2ccc(Cl)cc2Cl)c2ncnc1-2 [3-(2,4-Dichloro-benzyl)-3H-purin-6-ylamine] | 1000 to 20000 |
| Nc1ncn(Cc2c(Cl)cccc2Cl)c2nc(Cc3ccc(Br)cc3)nc1-2 [3-[(2,6-Dichlorophenyl)methyl]-8-[(4-bromophenyl)methyl]-3-hydropurine-6-ylamine] | ≤ 1000 |
| Cn1cc(-c2nc3c(N)ncn(Cc4c(Cl)cccc4Cl)c-3n2)cn1 [3-[(2,6-Dichlorophenyl)methyl]-8-(1-methylpyrazol-4-yl)-3-hydropurine-6-ylamine] | ≤ 1000 |
